Active and inactive are the calls of the source. How the calls were made is not given here.
Tested on: CCRIS mutagenicity, Ames/micronucleus/aberration tests
Test: CCRIS mutagenicity studies
Details: Method: STANDARD PLATE

Measured: mutagenic call

CC(C)(c1ccc(OP(O)O)cc1)c1ccc(OP(O)O)cc1
inactive: Test System: AMES SALMONELLA TYPHIMURIUM, Strain/Indicator: TA97, Metabolic Activation: NONE inactive; negative | Test System: AMES SALMONELLA TYPHIMURIUM, Strain/Indicator: TA97, Metabolic Activation: S-9 inactive; negative | Test System: AMES SALMONELLA TYPHIMURIUM, Strain/Indicator: TA98, Metabolic Activation: NONE inactive; negative | Test System: AMES SALMONELLA TYPHIMURIUM, Strain/Indicator: TA98, Metabolic Activation: S-9 inactive; negative | Test System: AMES SALMONELLA TYPHIMURIUM, Strain/Indicator: TA100, Metabolic Activation: NONE inactive; negative | Test System: AMES SALMONELLA TYPHIMURIUM, Strain/Indicator: TA100, Metabolic Activation: S-9 inactive; negative | Test System: AMES SALMONELLA TYPHIMURIUM, Strain/Indicator: TA102, Metabolic Activation: NONE inactive; negative | Test System: AMES SALMONELLA TYPHIMURIUM, Strain/Indicator: TA102, Metabolic Activation: S-9 inactive; negative | Test System: E.COLI, Strain/Indicator: WP2 (PKM101), Metabolic Activation: NONE inactive; negative | Test System: E.COLI, Strain/Indicator: WP2 (PKM101), Metabolic Activation: S-9 inactive; negative
